Each structure is given as a SMILES string. Calls of active or inactive are those of the source. No stated cut-off is given here; in the data, actives have a measured IC50 and inactives only a lower limit.

In the assay the target is Envelope glycoprotein gp160 (Human immunodeficiency virus 1, UniProt Q6QLK5). Nature of the assay: cell-free HIV fusion peptide-binding blockers – biochemical, uHTS, fluorescence dequenching, […] (AID 1986).
Sequence of Envelope glycoprotein gp160 (Q6QLK5 whole entry, the tested form may be a part): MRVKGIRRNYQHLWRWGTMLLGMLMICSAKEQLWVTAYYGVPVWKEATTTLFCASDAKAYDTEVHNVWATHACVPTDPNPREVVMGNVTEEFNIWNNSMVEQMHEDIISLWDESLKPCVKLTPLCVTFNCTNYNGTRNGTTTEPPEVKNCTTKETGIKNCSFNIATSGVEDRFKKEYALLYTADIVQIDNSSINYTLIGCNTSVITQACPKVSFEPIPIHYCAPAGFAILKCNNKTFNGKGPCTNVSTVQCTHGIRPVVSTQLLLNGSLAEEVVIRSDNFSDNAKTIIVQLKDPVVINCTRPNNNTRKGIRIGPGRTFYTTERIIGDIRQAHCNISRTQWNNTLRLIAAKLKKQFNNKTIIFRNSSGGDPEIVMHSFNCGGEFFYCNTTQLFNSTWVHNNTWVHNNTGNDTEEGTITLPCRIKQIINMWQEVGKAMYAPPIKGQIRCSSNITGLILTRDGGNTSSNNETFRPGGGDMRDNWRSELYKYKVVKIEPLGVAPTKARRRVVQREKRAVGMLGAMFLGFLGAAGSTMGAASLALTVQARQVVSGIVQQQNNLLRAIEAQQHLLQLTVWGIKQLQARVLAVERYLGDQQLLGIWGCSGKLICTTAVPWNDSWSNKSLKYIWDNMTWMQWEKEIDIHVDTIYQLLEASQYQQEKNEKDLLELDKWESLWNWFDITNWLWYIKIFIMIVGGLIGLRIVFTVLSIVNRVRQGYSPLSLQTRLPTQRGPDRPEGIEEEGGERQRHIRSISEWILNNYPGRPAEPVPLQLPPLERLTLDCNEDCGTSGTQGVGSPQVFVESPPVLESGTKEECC
As a reminder, the IC50 is the concentration at which inhibition is half-maximal. In the case of `O=C(O)C1Nc2c(cccc2C(F)(F)F)C2C=CCC12` (stereo not given), the IC50 was 12.7 µM (active).
In the case of `O=C(O)c1[nH]c2ccccc2c1C(c1cc(Cl)cc([N+](=O)[O-])c1O)c1c(C(=O)O)[nH]c2ccccc12`, the IC50 is 2.55 µM (active).
Regarding `CCC(Sc1nc2ccsc2c(=O)n1Cc1ccc(C(=O)O)cc1)C(=O)Nc1ccc(C)c(Cl)c1` (stereo not given), the IC50 was 20 µM (active).
Take `COc1cc(/C=N/NC(=O)C(Cc2c[nH]c3ccccc23)NC(=O)OCc2ccccc2)cc([N+](=O)[O-])c1O` (stereo not given): the IC50 is 17.2 µM (active).
`COc1cc(/C=N/NS(=O)(=O)c2ccc3ccccc3c2)ccc1OCc1ccc(C(=O)O)cc1`: the IC50 was 27 µM (active).

The values above are taken from ChEMBL document CHEMBL1201862, “PubChem BioAssay data set” (2004).
